# From US10294218B2 (VIROSTATICS SRL, priority 2012, dated 2019)
# Where a name gives a salt, the structure may show the parent alone.
# Target: human CDK9/CyclinT kinase complex (Homo sapiens (Human), UniProt P50750)
# Assay: In vitro CDK9/CyclinT assay (IMAP fluorescent polarization)
# Format: biochemical
# Protocol: The activity of the compounds described in the present invention can be determined by measuring the phosphorylation of a fluorescently-labeled peptide by human CDK9/CyclinT kinase complex by fluorescent polarization using a commercially available IMAP Screening Express Assay Kit (Molecular devices).
# Test compounds were diluted in 100% DMSO to 5 mM stock concentration, then further dilutions were made in H2O or 100% DMSO to desirable concentrations.
# Each reaction consisted of 5 nM enzyme: CDK9/CyclinT (Proqinase cat#0371-0345-1), 400 nM TAMRA-Rbtide (synthetic 15-mer peptide derived from human retinoblastoma tumor suppressor protein labeled with TAMRA dye, Genecust Europe), 12 μM ATP (=Kmapp, Sigma-Aldrich) and kinase buffer: 20 mM MOPS pH 7 (Sigma-Aldrich), 1 mM DTT (Sigma-Aldrich), 10 mM MgCl2 (Sigma-Aldrich), 0.01% Tween 20 (Sigma-Aldrich).
# For each reaction, 4 or 6 μl containing TAMRA-Rbtide, ATP and kinase buffer were combined with 2 μl diluted compound in H2O or 0.028 μl compound in 100% DMSO. The kinase reaction was started by the addition of 2 μl diluted enzyme. The reaction was allowed to run for 1 hour at room temperature. The reaction was stopped by adding 15 μl IMAP beads (1:400 beads in progressive (100% buffer A) 1× buffer).
# Sequence of human CDK9/CyclinT kinase complex (P50750 whole entry): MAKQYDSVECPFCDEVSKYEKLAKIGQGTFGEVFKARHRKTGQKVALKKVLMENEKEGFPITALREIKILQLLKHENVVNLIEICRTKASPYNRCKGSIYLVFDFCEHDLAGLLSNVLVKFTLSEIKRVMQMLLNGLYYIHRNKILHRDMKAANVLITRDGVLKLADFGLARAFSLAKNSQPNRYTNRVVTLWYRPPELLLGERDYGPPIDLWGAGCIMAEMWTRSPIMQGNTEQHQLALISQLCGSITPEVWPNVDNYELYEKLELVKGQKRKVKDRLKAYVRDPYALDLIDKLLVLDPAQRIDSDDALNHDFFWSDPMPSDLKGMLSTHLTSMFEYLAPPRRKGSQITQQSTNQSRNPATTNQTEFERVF
# Sequence of human CDK9/CyclinT kinase complex (O60563 whole entry partner): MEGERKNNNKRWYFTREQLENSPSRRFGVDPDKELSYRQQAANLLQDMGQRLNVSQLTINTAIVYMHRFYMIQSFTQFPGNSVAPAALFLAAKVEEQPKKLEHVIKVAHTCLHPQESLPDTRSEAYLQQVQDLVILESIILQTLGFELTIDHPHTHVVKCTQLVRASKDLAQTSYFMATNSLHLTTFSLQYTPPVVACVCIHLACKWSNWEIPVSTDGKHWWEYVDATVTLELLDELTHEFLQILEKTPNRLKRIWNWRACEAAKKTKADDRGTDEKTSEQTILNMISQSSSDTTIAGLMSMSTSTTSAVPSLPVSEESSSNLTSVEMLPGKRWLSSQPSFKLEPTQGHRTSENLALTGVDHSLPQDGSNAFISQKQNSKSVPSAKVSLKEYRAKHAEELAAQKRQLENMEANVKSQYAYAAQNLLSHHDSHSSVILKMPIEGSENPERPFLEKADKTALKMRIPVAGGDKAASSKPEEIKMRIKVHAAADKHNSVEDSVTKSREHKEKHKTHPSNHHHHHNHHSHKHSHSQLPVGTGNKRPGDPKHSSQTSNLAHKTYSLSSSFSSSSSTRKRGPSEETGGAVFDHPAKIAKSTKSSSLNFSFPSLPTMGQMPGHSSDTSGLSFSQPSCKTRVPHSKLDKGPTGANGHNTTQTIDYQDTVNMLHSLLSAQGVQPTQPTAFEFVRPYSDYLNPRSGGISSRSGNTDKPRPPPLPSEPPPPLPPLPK
row,Compound,IC50 [nM]
1,"COc1ccccc1-c1cc(Nc2ccc(N(C)C)c(F)c2)ncn1 [Example 106, 2-Fluoro-N^4-[6-(2-methoxy-phenyl)-pyrimidin-4-yl]-N^1,N^1-dimethyl-benzene-1,4-diamine Hydrochloride]",< 1000
2,"COc1ccccc1-c1cc(Nc2ccc(Cl)c(O)c2)ncn1 [Example 107, 2-Chloro-5-[6-(2-methoxy-phenyl)-pyrimidin-4-ylamino]-phenol Hydrochloride]",< 1000
